Measurements published in patent US8916551B2, “Heterocyclic compound and use thereof” (Takeda Pharmaceutical Company Limited, priority 2010, dated 2014).

Biological target: T1, AMPA receptor (human GluR1 flip/stargazin expressed in CHO-K1 cells) (Homo sapiens, UniProt P42261)
T1 construct: expressed in transfected cells; host or cells: CHO-K1
Experiment: AMPA receptor function enhancing activity using calcium influx as index
Assay type: cell-based
Settings: test compound 30 μM with 3 mM glutamic acid, change in fluorescence level in 3 min, 100% = 3 mM glutamic acid + 300 μM cyclothiazide, 0% = 3 mM glutamic acid only
How it was run: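 CHO-K1 clone stably co-expressing human GluR1 flip and stargazin, loaded with Calcium 4 dye plus probenecid. Compound at 30 μM was added with glutamate (3 mM final) and fluorescence change followed over 3 min. Activity is expressed as % of the 3 mM glutamate plus 300 μM cyclothiazide response, with glutamate alone as 0%.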

T1 sequence (P42261 19-906 isoform P42261-2 limits assumed): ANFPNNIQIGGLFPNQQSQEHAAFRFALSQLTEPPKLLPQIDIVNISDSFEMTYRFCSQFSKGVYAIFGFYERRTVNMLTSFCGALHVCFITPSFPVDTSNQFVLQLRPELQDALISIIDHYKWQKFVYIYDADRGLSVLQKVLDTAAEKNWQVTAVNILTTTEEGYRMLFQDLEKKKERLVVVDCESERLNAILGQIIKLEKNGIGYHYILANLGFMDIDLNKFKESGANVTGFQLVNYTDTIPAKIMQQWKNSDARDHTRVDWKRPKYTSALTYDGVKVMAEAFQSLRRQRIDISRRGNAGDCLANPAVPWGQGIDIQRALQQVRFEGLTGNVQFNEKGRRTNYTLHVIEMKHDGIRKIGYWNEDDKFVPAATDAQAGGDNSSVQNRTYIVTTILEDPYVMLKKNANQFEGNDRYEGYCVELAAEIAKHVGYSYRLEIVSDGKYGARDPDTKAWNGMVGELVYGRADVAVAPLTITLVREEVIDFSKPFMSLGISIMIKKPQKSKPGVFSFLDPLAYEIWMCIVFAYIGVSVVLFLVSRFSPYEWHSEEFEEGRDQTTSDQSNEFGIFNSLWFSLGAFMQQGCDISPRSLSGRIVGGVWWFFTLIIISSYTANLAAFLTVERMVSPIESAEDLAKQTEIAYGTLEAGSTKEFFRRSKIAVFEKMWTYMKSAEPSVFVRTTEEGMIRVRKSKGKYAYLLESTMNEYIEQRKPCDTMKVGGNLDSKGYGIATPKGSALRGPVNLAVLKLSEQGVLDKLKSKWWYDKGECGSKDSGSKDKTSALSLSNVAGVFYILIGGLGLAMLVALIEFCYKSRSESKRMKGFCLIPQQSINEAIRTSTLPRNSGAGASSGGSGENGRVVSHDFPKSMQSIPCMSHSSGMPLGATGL
T1 sequence (Q9Y698 whole entry partner): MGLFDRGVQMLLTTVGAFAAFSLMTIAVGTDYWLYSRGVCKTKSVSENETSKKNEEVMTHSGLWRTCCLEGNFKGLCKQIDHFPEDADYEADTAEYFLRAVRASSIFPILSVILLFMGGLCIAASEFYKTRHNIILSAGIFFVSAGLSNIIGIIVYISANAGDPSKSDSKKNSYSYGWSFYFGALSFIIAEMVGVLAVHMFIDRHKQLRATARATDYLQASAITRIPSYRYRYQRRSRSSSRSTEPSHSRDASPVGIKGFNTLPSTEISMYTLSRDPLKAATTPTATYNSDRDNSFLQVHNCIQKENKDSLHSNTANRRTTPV

| Structure (SMILES) | activity (%) |
| --- | --- |
| CC1=CN2CCS(=O)(=O)N=C2C(c2ccc(OC3CCCCC3)cc2)=N1 [Example 180, 9-[4-(cyclohexyloxy)phenyl]-7-methyl-3,4-dihydropyrazino[2,1-c][1,2,4]thiadiazine 2,2-dioxide] | 70% |
| O=S1(=O)CCN2C=CC=C(C3CCC(c4ccccc4)CC3)C2=N1 (stereo not shown) [Example 185, 9-(4-phenylcyclohexyl)-3,4-dihydropyrido[2,1-c][1,2,4]thiadiazine 2,2-dioxide] | 36% |
| O=S1(=O)CCN2C=CC=C(c3ccc(Oc4cccc(C(F)(F)F)c4)cc3)C2=N1 [Example 187, 9-{4-[3-(trifluoromethyl)phenoxy]phenyl}-3,4-dihydropyrido[2,1-c][1,2,4]thiadiazine 2,2-dioxide] | 72% |
| O=S1(=O)CCN2CCC[C@@H](c3ccc(Oc4cccc(Cl)c4)cc3)C2=N1 [Example 203, (9S)-9-[4-(3-chlorophenoxy)phenyl]-3,4,6,7,8,9-hexahydropyrido[2,1-c][1,2,4]thiadiazine 2,2-dioxide] | 85% |
| O=S1(=O)CCN2C=CN=C(c3ccc(Oc4ccccc4)cc3)C2=N1 [Example 210, 9-(4-phenoxyphenyl)-3,4-dihydropyrazino[2,1-c][1,2,4]thiadiazine 2,2-dioxide] | 82% |
| O=S1(=O)CCN2CCNC(c3ccc(Oc4ccccc4)cc3)C2=N1 (stereo not shown) [Example 211, 9-(4-phenoxyphenyl)-3,4,6,7,8,9-hexahydropyrazino[2,1-c][1,2,4]thiadiazine 2,2-dioxide] | 71% |
| Cc1cc(Cl)ccc1Oc1ccc([C@@H]2CCCN3CCS(=O)(=O)N=C23)cc1 [Example 215, (9S)-9-[4-(4-chloro-2-methylphenoxy)phenyl]-3,4,6,7,8,9-hexahydropyrido[2,1-c][1,2,4]thiadiazine 2,2-dioxide] | 67% |
| O=S1(=O)CCN2CCC[C@@H](c3ccc(-c4ccccc4Cl)cc3)C2=N1 [Example 220, (9S)-9-(2′-chlorobiphenyl-4-yl)-3,4,6,7,8,9-hexahydropyrido[2,1-c][1,2,4]thiadiazine 2,2-dioxide] | 93% |
| O=S1(=O)CCN2CCCC(c3ccc(-c4ccccc4Cl)cc3)C2=N1 (stereo not shown) [Example 221, 9-(2′-chlorobiphenyl-4-yl)-3,4,6,7,8,9-hexahydropyrido[2,1-c][1,2,4]thiadiazine 2,2-dioxide] | 96% |
| O=S1(=O)CCN2CCC[C@@H](c3ccc(-c4ccc(F)c(Cl)c4)cc3)C2=N1 [Example 226, (9S)-9-(3′-chloro-4′-fluorobiphenyl-4-yl)-3,4,6,7,8,9-hexahydropyrido[2,1-c][1,2,4]thiadiazine 2,2-dioxide] | 79% |
| O=S1(=O)CCN2CCC[C@@H](c3ccc(Oc4ccc(Br)cc4)cc3)C2=N1 [Example 228, (9S)-9-[4-(4-bromophenoxy)phenyl]-3,4,6,7,8,9-hexahydropyrido[2,1-c][1,2,4]thiadiazine 2,2-dioxide] | 78% |
| CC(F)(F)c1ccc(C2CCCN3CCS(=O)(=O)N=C23)cc1 (stereo not shown) [Example 230, 9-[4-(1,1-difluoroethyl)phenyl]-3,4,6,7,8,9-hexahydropyrido[2,1-c][1,2,4]thiadiazine 2,2-dioxide] | 59% |
| CC(F)(F)c1ccc(C2CCCN3CCS(=O)(=O)N=C23)cc1 (stereo not shown) [Example 231, 9-[4-(1,1-difluoroethyl)phenyl]-3,4,6,7,8,9-hexahydropyrido[2,1-c][1,2,4]thiadiazine 2,2-dioxide] | 78% |
| CC(F)(F)c1ccc(Oc2ccc(C3CCCN4CCS(=O)(=O)N=C34)cc2)cc1 (stereo not shown) [Example 235, 9-{4-[4-(1,1-difluoroethyl)phenoxy]phenyl}-3,4,6,7,8,9-hexahydropyrido[2,1-c][1,2,4]thiadiazine 2,2-dioxide] | 84% |
| O=S1(=O)CCN2C=CC=C(Oc3ccc4c(c3)CCCC4)C2=N1 [Example 237, 9-(5,6,7,8-tetrahydronaphthalen-2-yloxy)-3,4-dihydropyrido[2,1-c][1,2,4]thiadiazine 2,2-dioxide] | 66% |
| O=S1(=O)CCN2CCCC(Oc3ccc4c(c3)CCCC4)C2=N1 (stereo not shown) [Example 238, 9-(5,6,7,8-tetrahydronaphthalen-2-yloxy)-3,4,6,7,8,9-hexahydropyrido[2,1-c][1,2,4]thiadiazine 2,2-dioxide] | 87% |
| O=S1(=O)CCN2C=CC=C(c3ccc(-n4cccn4)cc3)C2=N1 [Example 239, 9-[4-(1H-pyrazol-1-yl)phenyl]-3,4-dihydropyrido[2,1-c][1,2,4]thiadiazine 2,2-dioxide] | 88% |
| O=C1CCC(Oc2ccc(C3=CC=CN4CCS(=O)(=O)N=C34)cc2)CC1 [Example 244, 4-[4-(2,2-dioxido-3,4-dihydropyrido[2,1-c][1,2,4]thiadiazin-9-yl)phenoxy]cyclohexanone] | 76% |
| Cc1cccc(Oc2ccc(C3=CC=CN4CCS(=O)(=O)N=C34)cc2)n1 [Example 246, 9-{4-[(6-methylpyridin-2-yl)oxy]phenyl}-3,4-dihydropyrido[2,1-c][1,2,4]thiadiazine 2,2-dioxide] | 73% |
| O=S1(=O)CCN2C=C(Cl)C=C(c3ccc(OCC4CCCO4)cc3)C2=N1 (stereo not shown) [Example 251, 7-chloro-9-[4-(tetrahydrofuran-2-ylmethoxy)phenyl]-3,4-dihydropyrido[2,1-c][1,2,4]thiadiazine 2,2-dioxide] | 81% |
| O=S1(=O)CCN2C=C(Cl)C=C(c3ccc(OCC4CCOCC4)cc3)C2=N1 [Example 253, 7-chloro-9-[4-(tetrahydro-2H-pyran-4-ylmethoxy)phenyl]-3,4-dihydropyrido[2,1-c][1,2,4]thiadiazine 2,2-dioxide] | 80% |

Second part, the compound after the results:

| activity (%) | Structure (SMILES) |
| --- | --- |
| 81% | O=S1(=O)CCN2C=CC=C(c3ccc(Oc4ccc(C(F)(F)F)nc4)cc3)C2=N1 [Example 254, 9-(4-{[6-(trifluoromethyl)pyridin-3-yl]oxy}phenyl)-3,4-dihydropyrido[2,1-c][1,2,4]thiadiazine 2,2-dioxide] |
| 84% | O=S1(=O)CCN2C=CC=C(c3ccc(Oc4cnccc4C(F)(F)F)cc3)C2=N1 [Example 255, 9-(4-{[4-(trifluoromethyl)pyridin-3-yl]oxy}phenyl)-3,4-dihydropyrido[2,1-c][1,2,4]thiadiazine 2,2-dioxide] |
| 86% | O=S1(=O)CCN2C=C(Cl)C=C(c3ccc(Oc4ccc(C(F)(F)F)nc4)cc3)C2=N1 [Example 256, 7-chloro-9-(4-{[6-(trifluoromethyl)pyridin-3-yl]oxy}phenyl)-3,4-dihydropyrido[2,1-c][1,2,4]thiadiazine 2,2-dioxide] |
| 84% | O=S1(=O)CCN2C=CC=C(c3ccc(Oc4ccnc(C(F)(F)F)c4)cc3)C2=N1 [Example 257, 9-(4-{[2-(trifluoromethyl)pyridin-4-yl]oxy}phenyl)-3,4-dihydropyrido[2,1-c][1,2,4]thiadiazine 2,2-dioxide] |
| 79% | O=S1(=O)CCN2C=CC=C(c3ccc(Oc4ccccc4)cn3)C2=N1 [Example 258, 9-(5-phenoxypyridin-2-yl)-3,4-dihydropyrido[2,1-c][1,2,4]thiadiazine 2,2-dioxide] |
| 90% | O=S1(=O)CCN2C=CC=C(c3ccc(Oc4cncc(C(F)(F)F)c4)cc3)C2=N1 [Example 259, 9-(4-{[5-(trifluoromethyl)pyridin-3-yl]oxy}phenyl)-3,4-dihydropyrido[2,1-c][1,2,4]thiadiazine 2,2-dioxide] |
| 91% | O=S1(=O)CCN2C=C(Cl)C=C(c3ccc(Oc4cncc(C(F)(F)F)c4)cc3)C2=N1 [Example 260, 7-chloro-9-(4-{[5-(trifluoromethyl)pyridin-3-yl]oxy}phenyl)-3,4-dihydropyrido[2,1-c][1,2,4]thiadiazine 2,2-dioxide] |
| 72% | O=S1(=O)CCN2CCCC(c3ccc(OC4CCCCC4)cc3)C2=N1 (stereo not shown) [Example 261, 9-[4-(cyclohexyloxy)phenyl]-3,4,6,7,8,9-hexahydropyrido[2,1-c][1,2,4]thiadiazine 2,2-dioxide] |
| 80% | O=S1(=O)CCN2C=CC=C(c3ccc(OCC(F)(F)F)cc3)C2=N1 [Example 264, 9-[4-(2,2,2-trifluoroethoxy)phenyl]-3,4-dihydropyrido[2,1-c][1,2,4]thiadiazine 2,2-dioxide] |
| 84% | O=S1(=O)CCN2C=CC=C(c3ccc(Oc4ccccc4C(F)(F)F)cc3)C2=N1 [Example 266, 9-{4-[2-(trifluoromethyl)phenoxy]phenyl}-3,4-dihydropyrido[2,1-c][1,2,4]thiadiazine 2,2-dioxide] |
| 85% | O=C1CCCCC1Oc1ccc(C2=CC=CN3CCS(=O)(=O)N=C23)cc1 (stereo not shown) [Example 274, 2-[4-(2,2-dioxido-3,4-dihydropyrido[2,1-c][1,2,4]thiadiazin-9-yl)phenoxy]cyclohexanone] |
| 84% | O=S1(=O)CCN2C=CC=C(c3ccc(-c4ccccc4)nc3)C2=N1 [Example 282, 9-(6-phenylpyridin-3-yl)-3,4-dihydropyrido[2,1-c][1,2,4]thiadiazine 2,2-dioxide] |
| 73% | CC1(C)Cc2cc(C3=CC=CN4CCS(=O)(=O)N=C34)ccc2C1=O [Example 287, 5-(2,2-dioxido-3,4-dihydropyrido[2,1-c][1,2,4]thiadiazin-9-yl)-2,2-dimethyl-2,3-dihydro-1H-inden-1-one] |
